Results reported in US7625872B2, “Branched immunomodulatory compounds and methods of using the same” (Dynavax Technologies Corporation, priority 2002, dated 2009).

Legend:
human PBMC cells = assay: human PBMC assay: IFN-γ and IFN-α in cell-free medium by ELISA; type: cell-based; conditions: for IFN-α (pg/ml) 17240 / IFN-γ (pg/ml) 17240: donor 17240; for IFN-α (pg/ml) 17240 / IFN-γ (pg/ml) 17240 / IFN-α (pg/ml) 17241 / IFN-γ (pg/ml) 17241 / IFN-α (pg/ml) 17242 / IFN-γ (pg/ml) 17242 / IFN-α (pg/ml) 17243 / IFN-γ (pg/ml) 17243 / IFN-α (pg/ml) mean: test samples 20 μg/ml, '+ PLGA' = premixed with 100 μg/ml cPLGA; for IFN-α (pg/ml) 17240 / IFN-γ (pg/ml) 17240 / IFN-α (pg/ml) 17241 / IFN-γ (pg/ml) 17241 / IFN-α (pg/ml) 17242 / IFN-γ (pg/ml) 17242 / IFN-α (pg/ml) 17243 / IFN-γ (pg/ml) 17243 / IFN-α (pg/ml) mean / IFN-α +PLGA / IFN-γ +PLGA / IFN-α −PLGA / IFN-γ −PLGA: 24 hours; for IFN-α (pg/ml) 17240 / IFN-γ (pg/ml) 17240 / IFN-α (pg/ml) 17241 / IFN-γ (pg/ml) 17241 / IFN-α (pg/ml) 17242 / IFN-γ (pg/ml) 17242 / IFN-α (pg/ml) 17243 / IFN-γ (pg/ml) 17243: SAC 1/5000 dilution; for IFN-α (pg/ml) 17241 / IFN-γ (pg/ml) 17241: donor 17241; for IFN-α (pg/ml) 17242 / IFN-γ (pg/ml) 17242: donor 17242; for IFN-α (pg/ml) 17243 / IFN-γ (pg/ml) 17243: donor 17243; for IFN-α (pg/ml) mean: mean of 4 donors; for IFN-α +PLGA / IFN-γ +PLGA / IFN-α −PLGA / IFN-γ −PLGA: mean results (Table 4; unit in Table 3); for IFN-α +PLGA / IFN-γ +PLGA: 20 μg/ml formulated with 100 μg/ml cPLGA; for IFN-α −PLGA / IFN-γ −PLGA: compound alone, 20 μg/ml
Experimental: Peripheral blood was collected from volunteers by venipuncture using heparinized syringes. Blood was layered onto a FICOLL® (Amersham Pharmacia Biotech) cushion and centrifuged. PBMCs, located at the FICOLL® interface, were collected, then washed twice with cold phosphate buffered saline (PBS). The cells were resuspended and cultured in 48 well plates or 96-well plates at 2×10^6 cells/mL at 37° C. in RPMI 1640 with 10% heat-inactivated human AB serum plus 50 units/mL penicillin, 50 μg/mL streptomycin, 300 μg/mL glutamine, 1 mM sodium pyruvate, and 1×MEM non-essential amino acids (NEAA).
The cells were cultured in the absence of test samples, in the presence of test samples at 20 μg/ml (0.5 OD/ml), or in the presence of test samples at 20 μg/ml premixed with 100 μg/ml cationic poly(lactic acid, glycolic acid) microcarriers (cPLGA; see infra) (when used) for 24 hours. Cell-free medium was then collected from each well and assayed for IFN-γ and IFN-α concentrations. SAC (Pansorbin CalBiochem, 1/5000 dilution) was used as a positive control. SAC is Staph. aureus (cowan) cell material.
IFN-γ and IFN-α were assayed using CYTOSCREEN™ ELISA kits from BioSource International, Inc., according to the manufacturer's instructions.
Compound B07 (see Example 1, above) was tested for immunomodulatory activity in human PBMC cells as outlined in Example 9, above. For comparison purposes, the immunomodulatory activities of a variety of polynucleotides and chimeric molecules containing spacer moieties were also assayed. The syntheses and features of immunomodulatory chimeric molecules like compounds C-101, C-124, and C-125 are described in U.S. patent application Ser. No. 10/176,883 entitled, “Chimeric Immunomodulatory Compounds and Methods of Using the Same,” filed on Jun. 21, 2002, herein incorporated by reference. All nucleotide linkages and linkages between NAMs, spacer moieties and branch-point nucleosides in the listed compounds are phosphorothioate esters. HEG=hexaethylene glycol; symmetrical doubler=1,3-diamino-2-propanol; trebler=modified pentaerythritol; T-C6=2′-deoxyuridine; AHA=aminohexyl-3(E)-acrylamido linked at the C-5 position of 2′-deoxyuridine (see FIG. 1A). The compounds were each tested both alone and formulated with cPLGA (see Example 9, supra).

[1] = solubility of spacer moiety measured as dialcohol precursor; type: physicochemical; conditions: dodecyl spacer measured as dialcohol precursor; water solubility
Experimental: In addition, a spacer moiety that has low solubility, such as a dodecyl spacer (solubility <5 mg/ml when measured as dialcohol precursor 1,12-dihydroxydodecane) is not preferred because it can reduce the hydrophilicity and activity of the BIC. Preferably, spacer moieties have solubility much greater than 5 mg/ml (e.g., solubility at least about 20 mg/ml, at least about 50 mg/ml or at least about 100 mg/ml), e.g., when measured as dialcohol precursors. The form of the spacer moiety used for testing its water solubility is generally its most closely related unactivated and unprotected spacer precursor molecule.

Molecule | IFN-α (pg/ml) 17240 (human PBMC cells) | IFN-γ (pg/ml) 17240 (human PBMC cells) | IFN-α (pg/ml) 17241 (human PBMC cells) | IFN-γ (pg/ml) 17241 (human PBMC cells) | IFN-α (pg/ml) 17242 (human PBMC cells) | IFN-γ (pg/ml) 17242 (human PBMC cells) | IFN-α (pg/ml) 17243 (human PBMC cells) | IFN-γ (pg/ml) 17243 (human PBMC cells) | IFN-α (pg/ml) mean (human PBMC cells) | IFN-α +PLGA (human PBMC cells) | IFN-γ +PLGA (human PBMC cells) | IFN-α −PLGA (human PBMC cells) | IFN-γ −PLGA (human PBMC cells) | solubility [1] | immunomodulatory activity compared with linear polynucleotide P-6 (human PBMC cells; PBMC assays, in words) | induction of IFN-γ and IFN-α compared with chimeric compounds (human PBMC cells; PBMC assays, in words)
(5′-TAGTCAT-3′-HEG)2-glycerol-HEG-5′-AACCTTC-3′ [M-100] | 30 pg/mL | 27 pg/mL | 30 pg/mL | 71 pg/mL | 30 pg/mL | 10 pg/mL | 30 pg/mL | 41 pg/mL | 30 pg/mL | 69 pg/mL | 136 pg/mL | 30 pg/mL | 37 pg/mL | – | – | –
(5′-TCGACGT-3′-HEG)3-trebler-HEG-5′-TCGACGT-3′ [C-125] | 1519 pg/mL | 253 pg/mL | 67 pg/mL | 136 pg/mL | 1284 pg/mL | 85 pg/mL | 309 pg/mL | 184 pg/mL | 795 pg/mL | 6348 pg/mL | 889 pg/mL | 795 pg/mL | 165 pg/mL | – | – | –
5′-TGACTGTGAACGTTCGAGATGA-3′ [P-6] | 86 pg/mL | 172 pg/mL | 30 pg/mL | 158 pg/mL | 57 pg/mL | 47 pg/mL | 30 pg/mL | 77 pg/mL | 51 pg/mL | 295 pg/mL | 568 pg/mL | 51 pg/mL | 113 pg/mL | – | – | –
(5′-TCGACGT3′-HEG)2-(T-C6 brancher)-HEG-5′-TCGACGT-3′ [B07 (#2)] | 1046 pg/mL | 207 pg/mL | 253 pg/mL | 129 pg/mL | 1365 pg/mL | 48 pg/mL | 520 pg/mL | 158 pg/mL | 796 pg/mL | 8998 pg/mL | 1016 pg/mL | 796 pg/mL | 135 pg/mL | – | – | –
(5′-TAGTCAT-HEG)3-trebler-HEG-5′-TAGTCAT-3′ [M-102] | 30 pg/mL | 34 pg/mL | 30 pg/mL | 24 pg/mL | 30 pg/mL | 10 pg/mL | 30 pg/mL | 45 pg/mL | 30 pg/mL | 85 pg/mL | 61 pg/mL | 30 pg/mL | 28 pg/mL | – | – | –
(5′-TAGTCAT-3′-HEG)2-symmetrical doubler-HEG-5′-TAGTCAT-3′ [M-101] | 39 pg/mL | 24 pg/mL | 30 pg/mL | 10 pg/mL | 30 pg/mL | 10 pg/mL | 30 pg/mL | 22 pg/mL | 32 pg/mL | 68 pg/mL | 92 pg/mL | 32 pg/mL | 16 pg/mL | – | – | –
OCCCCCCCCCCCCO [1,12-dihydroxydodecane] | – | – | – | – | – | – | – | – | – | – | – | – | – | < 5000 µg/mL | – | –
(5′-TCGACGT-3′-HEG)2-symmetrical doubler-HEG-5′-TCGACGT-3′ [C-124] | 1048 pg/mL | 303 pg/mL | 239 pg/mL | 155 pg/mL | 1186 pg/mL | 65 pg/mL | 249 pg/mL | 142 pg/mL | 680 pg/mL | 7017 pg/mL | 2661 pg/mL | 680 pg/mL | 166 pg/mL | – | – | –
(5-TCGACGT-3′-HEG)2-(T-C6)-AHA-HEG-5′-TCGACGT-3′ [B07] | 1080 pg/mL | 205 pg/mL | 122 pg/mL | 108 pg/mL | 1039 pg/mL | 30 pg/mL | 201 pg/mL | 140 pg/mL | 610 pg/mL | 7298 pg/mL | 883 pg/mL | 610 pg/mL | 121 pg/mL | – | far superior immunomodulatory activity than the linear polynucleotide P-6 | activity similar to the immunomodulatory chimeric compounds C-101, C-124, and C-125
5′-TGACTGTGAACCTTAGAGATGA-3′ (DNA TGACTGTGAACCTTAGAGATGA; DNA, all phosphorothioate, methylation of C not given here) [P-7] | 30 pg/mL | 35 pg/mL | 30 pg/mL | 127 pg/mL | 30 pg/mL | 10 pg/mL | 30 pg/mL | 58 pg/mL | 30 pg/mL | 30 pg/mL | 34 pg/mL | 30 pg/mL | 58 pg/mL | – | – | –
(5′-TCGACGT-3′-HEG)2-glycerol-HEG-5′-TCGACGT-3′ [C-101] | 2189 pg/mL | 237 pg/mL | 520 pg/mL | 147 pg/mL | 1071 pg/mL | 73 pg/mL | 293 pg/mL | 142 pg/mL | – | 5609 pg/mL | 1323 pg/mL | – | 150 pg/mL | – | – | –
